# Measurements from patent publication US10076519B2 (CYTOKINETICS, INC., priority 2010, dated 2018).
# Tested on: rabbit skeletal myofibrils (fast skeletal myofibrils)
# Experiment: Activation of fast skeletal myofibrils (PUMA assay, PK/LDH-coupled ATPase at pCa25)
# Format: biochemical
# Conditions: AC1.4 determined according to the procedure of Example 39; reported as class symbols
# In short: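 Detergent-washed rabbit psoas myofibrils (~90% fast fibres, calcium-regulated) assayed at calcium giving 25% of maximal ATPase rate (pCa25). ADP turnover coupled via pyruvate kinase/lactate dehydrogenase to NADH oxidation, read at 340 nm. Buffer 12 mM PIPES, 2 mM MgCl2, 1 mM DTT, pH 6.8; AC1.4 values derived.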
row,Mean AC1.4,SMILES
1,A (A=<1 uM),CC(C)Nc1n[nH]c2ccc(-c3ccc(NCC4(c5ncccc5F)CCC4)nn3)cc12 [{[(3-fluoro(2-pyridyl))cyclobutyl]methyl}(6-{3-[(methylethyl)amino](1H-indazol-5-yl)}pyridazin-3-yl)amine]
2,D (D=>20 uM),Cn1cc(-c2ccc(NCC3(c4ncccc4F)CCC3)nn2)cn1 [{[(3-fluoro(2-pyridyl))cyclobutyl]methyl}[6-(1-methylpyrazol-4-yl)pyridazin-3-yl]amine]

# Continued, molecule first:
row,SMILES,Mean AC1.4
1,CC(C)(CNc1ccc(-c2ccc(CN)nc2)nn1)c1ccc(F)cc1 [{6-[6-(aminomethyl)(3-pyridyl)]pyridazin-3-yl}[2-(4-fluorophenyl)-2-methylpropyl]amine],B (B=1-10 uM)
2,Fc1cccnc1C1(CNc2ccc(-c3cn[nH]c3)nn2)CCC1 [{[(3-fluoro(2-pyridyl))cyclobutyl]methyl}(6-pyrazol-4-ylpyridazin-3-yl)amine],C (C=10-20 uM)

# Same assay, conditions: median AC1.4 class, procedure of Example 39
row,Mean AC1.4,SMILES
1,D (D=>20 uM),Fc1cccnc1C1(CNc2ccc(-c3ccnnc3)nn2)CCC1 [{[(3-fluoro(2-pyridyl))cyclobutyl]methyl}(6-pyridazin-4-ylpyridazin-3-yl)amine]
2,B (B=1-10 uM),Fc1cccnc1C1(CNc2ccc(-c3ncccn3)nn2)CCC1 [{[(3-fluoro(2-pyridyl))cyclobutyl]methyl}(6-pyrimidin-2-ylpyridazin-3-yl)amine]
3,D (D=>20 uM),C=Cc1ccc(NCC2(c3ncccc3F)CCC2)nn1 [{[(3-fluoro(2-pyridyl))cyclobutyl]methyl}(6-vinylpyridazin-3-yl)amine]
4,C (C=10-20 uM),Cc1ncccc1-c1ccc(NCC2(c3ncccc3F)CCC2)nn1 [{[(3-fluoro(2-pyridyl))cyclobutyl]methyl}[6-(2-methyl(3-pyridyl))pyridazin-3-yl]amine]
5,D (D=>20 uM),Cc1ncc(-c2ccc(NCC3(c4ncccc4F)CCC3)nn2)cn1 [{[(3-fluoro(2-pyridyl))cyclobutyl]methyl}[6-(2-methylpyrimidin-5-yl)pyridazin-3-yl]amine]
6,D (D=>20 uM),Fc1cccnc1C1(CNc2ccc(-c3cnc(N4CCNCC4)nc3)nn2)CCC1 [{[(3-fluoro(2-pyridyl))cyclobutyl]methyl}[6-(2-piperazinylpyrimidin-5-yl)pyridazin-3-yl]amine]
7,B (B=1-10 uM),Fc1cccnc1-c1ccc(NCC2(c3ncccc3F)CCC2)nn1 [{[(3-fluoro(2-pyridyl))cyclobutyl]methyl}[6-(3-fluoro(2-pyridyl))pyridazin-3-yl]amine]
8,D (D=>20 uM),Fc1cccnc1C1(CNc2ccc(-c3ccc(N4CCOCC4)cc3)nn2)CCC1 [{[(3-fluoro(2-pyridyl))cyclobutyl]methyl}[6-(4-morpholin-4-ylphenyl)pyridazin-3-yl]amine]
9,D (D=>20 uM),"COc1ccc2nc(-c3ccc(NCC4(c5ncccc5F)CCC4)nn3)sc2n1 [{[(3-fluoro(2-pyridyl))cyclobutyl]methyl}[6-(5-methoxy(1,3-thiazolino[5,4-b]pyridin-2-yl))pyridazin-3-yl]amine]"
10,B (B=1-10 uM),COc1ccc(-c2ccc(NCC3(c4ncccc4F)CCC3)nn2)nc1 [{[(3-fluoro(2-pyridyl))cyclobutyl]methyl}[6-(5-methoxy(2-pyridyl))pyridazin-3-yl]amine]
11,A (A=<1 uM),"Fc1cccnc1C1(CNc2ccc(-c3ncc(-c4cc[nH]n4)s3)nn2)CCC1 [{[(3-fluoro(2-pyridyl))cyclobutyl]methyl}[6-(5-pyrazol-3-yl(1,3-thiazol-2-yl))pyridazin-3-yl]amine]"

# The next lines start with the molecule.
row,SMILES,Mean AC1.4
1,"NCc1cnc(-c2ccc(NCC3(c4ncccc4F)CCC3)nn2)s1 [{6-[5-(aminomethyl)(1,3-thiazol-2-yl)]pyridazin-3-yl}{[(3-fluoro(2-pyridyl))cyclobutyl]methyl}amine]",B (B=1-10 uM)
2,CNc1n[nH]c2ccc(-c3ccc(NC[C@]4(c5ncccc5F)C[C@H](F)C4)nn3)cc12 [{[3-fluoro-1-(3-fluoro(2-pyridyl))cyclobutyl]methyl}{6-[3-(methylamino)(1H-indazol-5-yl)]pyridazin-3-yl}amine],A (A=<1 uM)
3,"Fc1cccnc1C1(CNc2ccc(-c3nccs3)nn2)CCC1 [{[(3-fluoro(2-pyridyl))cyclobutyl]methyl}(6-(1,3-thiazol-2-yl)pyridazin-3-yl)amine]",B (B=1-10 uM)
4,"Fc1cccnc1C1(CNc2ccc(-c3nc4cccnc4s3)nn2)CCC1 [{[(3-fluoro(2-pyridyl))cyclobutyl]methyl}(6-(1,3-thiazolino[5,4-b]pyridin-2-yl)pyridazin-3-yl)amine]",B (B=1-10 uM)
5,Fc1cccnc1C1(CNc2ccc(-c3ccccn3)nn2)CCC1 [{[(3-fluoro(2-pyridyl))cyclobutyl]methyl}(6-(2-pyridyl)pyridazin-3-yl)amine],B (B=1-10 uM)
6,"Fc1cccnc1C1(CNc2ccc(-c3nc4c(s3)CNC4)nn2)CCC1 [{[(3-fluoro(2-pyridyl))cyclobutyl]methyl}(6-(3-pyrrolino[3,4-d]1,3-thiazol-2-yl)pyridazin-3-yl)amine]",D (D=>20 uM)
7,Fc1cccnc1C1(CNc2ccc(-c3ccccc3)nn2)CCC1 [{[(3-fluoro(2-pyridyl))cyclobutyl]methyl}(6-phenylpyridazin-3-yl)amine],A (A=<1 uM)
8,Fc1cccnc1C1(CNc2ccc(-c3cnccn3)nn2)CCC1 [{[(3-fluoro(2-pyridyl))cyclobutyl]methyl}(6-pyrazin-2-ylpyridazin-3-yl)amine],B (B=1-10 uM)

# Same assay, conditions: median AC1.4 reported as class; procedure of Example 39
row,Mean AC1.4,SMILES
1,D (D=>20 uM),Fc1cccnc1[C@]1(CNc2ccc(-c3ccc(NC4CC4)nc3)nn2)C[C@@H](F)C1 [{6-[6-(cyclopropylamino)(3-pyridyl)]pyridazin-3-yl}{[3-fluoro-1-(3-fluoro(2-pyridyl))cyclobutyl]methyl}amine]
2,B (B=1-10 uM),Nc1ncc(-c2ccc(NC[C@]3(c4ncccc4F)C[C@H](F)C3)nn2)cc1C(F)(F)F [{6-[6-amino-5-(trifluoromethyl)(3-pyridyl)]pyridazin-3-yl}{[3-fluoro-1-(3-fluoro(2-pyridyl))cyclobutyl]methyl}amine]
3,D (D=>20 uM),COc1ncc(-c2ccc(NC[C@]3(c4ncccc4F)C[C@H](F)C3)nn2)cc1C [{[3-fluoro-1-(3-fluoro(2-pyridyl))cyclobutyl]methyl}[6-(6-methoxy-5-methyl(3-pyridyl))pyridazin-3-yl]amine]
4,B (B=1-10 uM),CNc1ccc(-c2ccc(NC[C@]3(c4ncccc4F)C[C@H](F)C3)nn2)cn1 [{[3-fluoro-1-(3-fluoro(2-pyridyl))cyclobutyl]methyl}{6-[6-(methylamino)(3-pyridyl)]pyridazin-3-yl}amine]
5,D (D=>20 uM),"Fc1cccnc1C1(CNc2ccc(-c3nc4c(s3)CNCC4)nn2)CCC1 [{[(3-fluoro(2-pyridyl))cyclobutyl]methyl}(6-(4,5,6,7-tetrahydro-1,3-thiazolo[5,4-c]pyridin-2-yl)pyridazin-3-yl)amine]"
6,B (B=1-10 uM),"CN1CCN(Cc2cnc(-c3ccc(NCC4(c5ncccc5F)CCC4)nn3)s2)CC1 [{[(3-fluoro(2-pyridyl))cyclobutyl]methyl}(6-{5-[(4-methylpiperazinyl)methyl](1,3-thiazol-2-yl)}pyridazin-3-yl)amine]"
